Measurements reported in publication PMC9775191, “A Subset Screen of the Compounds Australia Scaffold Library Identifies 7-Acylaminodibenzoxazepinones as Potent and Selective Hits for Anti-Giardia Drug Discovery” (Biomedicines, 2022).

Tested on: G. duodenalis BRIS/91/HEPU/1279
Assay: Primary Giardia screen at 10 µM (live-cell imaging, automated counting)
Type: cell-based, Giardia duodenalis
Conditions: 24 h
Method in brief: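 Percent growth versus 0.2% DMSO vehicle, background-corrected with media-only wells, is reported at 24 and 48 h from automated live-cell counts. Testing used 10 μM final in a 3% O2 atmosphere, with plate quality checked by Z' factor.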

Row | SMILES | Average % Inhibition 24h [%]
1 | O=C(NCC1(c2ccccc2)CCOCC1)c1ccc(Br)cc1 [SN00783501] | 8.8
2 | Fc1cccc(Nc2c3c(nc4ccccc24)CCC3)c1 [SN00784170] | 2.3

Same assay, conditions: 24 h, first singlicate assay

Row | SMILES | % Inhibition n=1 24h [%]
3 | O=C(NCC1(c2ccccc2)CCOCC1)c1ccc(Br)cc1 [SN00783501] | 16.8
4 | Fc1cccc(Nc2c3c(nc4ccccc24)CCC3)c1 [SN00784170] | 4.6

Same assay, conditions: 24 h, re-assessment

Row | SMILES | % Inhibition n=2 24h [%]
5 | O=C(NCC1(c2ccccc2)CCOCC1)c1ccc(Br)cc1 [SN00783501] | 0.9
6 | Fc1cccc(Nc2c3c(nc4ccccc24)CCC3)c1 [SN00784170] | 0.0

Same assay, conditions: 48 h

Row | SMILES | Average % Inhibition 48h [%]
7 | O=C(NCC1(c2ccccc2)CCOCC1)c1ccc(Br)cc1 [SN00783501] | 37.7
8 | Fc1cccc(Nc2c3c(nc4ccccc24)CCC3)c1 [SN00784170] | 55.5

Same assay, conditions: 48 h, first singlicate assay

Row | SMILES | % Inhibition n=1 48h [%]
9 | Cc1ncccc1CNCC1CN(C2CC2)CCO1 (centres unmarked) [SN00783283] | 14.5
10 | CS(=O)(=O)c1nccn1Cc1ccccn1 [SN00783289] | 1.6
11 | Cc1sc(=O)n(CCC(=O)N2CCC(C)CC2c2ccco2)c1C (centres unmarked) [SN00783298] | 0.0
12 | CC(=O)C1=C(C)NC(=O)NC1c1ccc(Cl)cc1 (centres unmarked) [SN00783317] | 2.8
13 | NC(=O)c1nn2c(C(F)(F)F)cc(-c3ccccc3)nc2c1Br [SN00783344] | 38.7
14 | CN(C)c1nc(N(C)C)nc(N2CC(=O)N(c3ccc(Cl)c(Cl)c3)C2=N)n1 [SN00783378] | 16.0
15 | Cc1cc(C(F)(F)F)nn1CC(=O)Nc1cc(Oc2cccnc2)cc([N+](=O)[O-])c1 [SN00783379] | 22.1
16 | O=C(NCC1(c2ccccc2)CCOCC1)c1ccc(Br)cc1 [SN00783501] | 61.1
17 | CCOC(=O)c1sc2nc(C)nc(N3CCCCC3C)c2c1C (centres unmarked) [SN00783508] | 0.0
18 | COc1cc(C(=O)NCC2(c3ccccc3)CCOCC2)cc(OC)c1OC [SN00783529] | 6.5
19 | CC(=O)Oc1ccc(C(=O)Nc2ccc3nc(-c4ccc(Cl)cc4)oc3c2)cc1 [SN00783571] | 0.0
20 | CC1=NN(C(=O)COc2ccc(C)c(C)c2)C(O)(C(F)(F)F)C1 (centres unmarked) [SN00783577] | 0.0
21 | CC(NC(=O)Cn1nc(-c2ccccc2)c2ccccc2c1=O)c1ccccc1 (centres unmarked) [SN00783639] | 3.0
22 | O=C(O)c1cccc(Nc2nc(Nc3ccccc3)nc(N3CCCC3)n2)c1 [SN00783666] | 0.3
23 | Cc1cc(Cl)ccc1OCCCC(=O)Nc1nc2ccccc2[nH]1 [SN00783684] | 27.8
24 | Cc1ccc(-c2cc(C(=O)N3CC(C)CC(C)C3)c3ccccc3n2)o1 (centres unmarked) [SN00783691] | 7.2
25 | Cc1c(CN(C)C(=O)c2cc3nc(-c4cccs4)cc(C(F)(F)F)n3n2)cnn1C [SN00783696] | 0.0
26 | Cc1ccc(-c2cc(C(=O)NCc3cn(C)nc3C)c3ccccc3n2)cc1C [SN00783737] | 0.0
27 | CCCNC(=O)c1cnn2c(C(F)F)cc(-c3ccc(C)cc3)nc12 [SN00783826] | 40.8
28 | Cc1ccc(-c2cc(C(F)F)n3ncc(C(=O)NCc4cnn(C)c4C)c3n2)cc1 [SN00783829] | 0.0
29 | CCn1cc(CN(C)C(=O)c2cnn3c(C(F)F)cc(-c4ccc(OC)cc4)nc23)c(C)n1 [SN00783837] | 29.0
30 | Cc1coc(C)c1C(=O)CC1(O)C(=O)Nc2ccccc21 (centres unmarked) [SN00783840] | 0.0
31 | CCOC(=O)c1c(NC(=O)CN2C(=O)COc3ccc(Cl)cc32)sc2c1CCCC2 [SN00783847] | 26.0
32 | CCCN(c1ccccc1C(=O)O)S(=O)(=O)c1ccc2[nH]c(=O)[nH]c2c1 [SN00783856] | 12.1
33 | COc1ccc(OCCn2c(NC(=O)c3ccc(OC)cc3)nc3ccccc32)cc1 [SN00783884] | 19.5
34 | O=C(Cn1cnc([N+](=O)[O-])n1)NCCc1ccccc1 [SN00783937] | 33.8
35 | COc1ccc(C2NC(C(=O)O)Cc3c2[nH]c2ccccc32)c(OC)c1 (centres unmarked) [SN00783957] | 5.0

Row | SMILES | % Inhibition n=1 48h [%]
36 | CCOc1cc2c(cc1OCC)-n1cccc1C(c1cccc([N+](=O)[O-])c1)NC2 (centres unmarked) [SN00783996] | 10.3
37 | COc1cc(CNCCNC(=O)c2nonc2N)ccc1OCc1ccc(F)cc1 [SN00784068] | 0.0
38 | COC(=O)C1=C(C)N(C(C)C)C(=O)C1(NC(=O)C1CCCCC1)C(F)(F)F (centres unmarked) [SN00784094] | 0.0
39 | COc1cccc(C(=O)NC2(C(F)(F)F)C(=O)N(Cc3ccccc3)C(C)=C2C(C)=O)c1 (centres unmarked) [SN00784101] | 2.9
40 | CN(CCc1ccccn1)C(=O)c1cc2nc(-c3ccc(Cl)cc3)cc(C(F)(F)F)n2n1 [SN00784121] | 0.0
41 | O=C(Nc1cccc(C(F)(F)F)c1)c1cnn2c(C(F)(F)F)cc(-c3ccco3)nc12 [SN00784128] | 9.2
42 | Fc1cccc(Nc2c3c(nc4ccccc24)CCC3)c1 [SN00784170] | 66.2
43 | CCCCN(CCCNC(=O)c1c(C)oc2nc[nH]c(=O)c12)Cc1ccccc1 [SN00784186] | 16.8
44 | CN1C(=O)c2cc(NC(=O)c3ccc4c(c3)OCO4)ccc2N2CCN=C12 [SN00784190] | 31.6
45 | Fc1ccc(-c2cc(C(F)(F)F)nc(NCc3ccco3)n2)cc1 [SN00784252] | 2.3
46 | CCOC(=O)N1CCN(c2nc(-c3cccs3)cc(C(F)(F)F)n2)CC1 [SN00784268] | 21.6
47 | CC(C)CCNC(=O)C1CCCCN1S(=O)(=O)c1ccc(F)cc1 (centres unmarked) [SN00784282] | 5.5
48 | O=C(NCCCN1CCCCC1)c1cc(-c2cccs2)nc2ccccc12 [SN00784290] | 13.3
49 | O=c1c2cccnc2n(Cc2cc(=O)n3ccccc3n2)c(=O)n1CCc1ccccc1 [SN00784337] | 7.3
50 | CCOc1ccc(NS(=O)(=O)c2cc(C(=O)Nc3cc(C)ccc3C)[nH]n2)cc1 [SN00784397] | 15.3
51 | Cc1ccc2c(=O)c(C(=O)N3CCSCC3)c[nH]c2n1 [SN00784417] | 11.0
52 | CCCNC(=O)c1cc(-c2ccc(F)cc2)on1 [SN00784460] | 0.0
53 | COc1ccc(CCNC(=O)c2cc(-c3cccs3)on2)cc1OC [SN00784489] | 33.2
54 | O=C(Nc1cccc(O)c1)c1cc(-c2cccnc2)on1 [SN00784502] | 24.5
55 | O=C(NCc1ccc(Cl)cc1)c1noc2c1CCCC2 [SN00784503] | 0.0
56 | O=C1C2C(c3ccc(F)cc3)NC(Cc3ccccc3)(C(=O)O)C2C(=O)N1c1ccc(F)cc1 (centres unmarked) [SN00784528] | 0.7
57 | COc1ccc(-c2nc3sccn3c2Nc2ccc3c(c2)OCO3)cc1 [SN00784546] | 0.0
58 | CC(C)CCNC(=O)C1(C)CCC(=O)N1CCCN1CCN(c2cccc(Cl)c2)CC1 (centres unmarked) [SN00784585] | 25.4
59 | Cc1ccc(CNC(=O)C2(S(=O)(=O)c3ccc(Cl)cc3)CC2)cc1 [SN00784605] | 11.5
60 | O=C(N1CCN(c2cccc(Cl)c2)CC1)C1(S(=O)(=O)c2ccc(Cl)cc2)CC1 [SN00784607] | 0.0
61 | CCOc1ccc(-n2c(=O)c3c4c(sc3n(Cc3cccnc3)c2=O)CCC4)cc1 [SN00784617] | 0.0
62 | COc1ccc(N2C(=O)NC3CC2(C)Oc2ccc(OC)cc23)cc1 (centres unmarked) [SN00784647] | 11.2

Row | SMILES | % Inhibition n=1 48h [%]
63 | COc1cc(C(=O)N2C(=O)N(c3ccc(F)cc3)C3(C)CC2c2ccccc2O3)cc(OC)c1OC (centres unmarked) [SN00784661] | 3.1
64 | CC12CC(c3ccccc3O1)N(C(=O)c1cccc(F)c1)C(=O)N2c1ccccc1 (centres unmarked) [SN00784677] | 0.0
65 | Clc1ccc(Nc2nc3ccccc3n3nnnc23)cc1 [SN00784679] | 4.0
66 | Cc1cccc(NC(=O)CN2CC(c3ccccc3)CC2=O)c1 (centres unmarked) [SN00784702] | 10.4
67 | Cc1ccc(NC(=O)CN2CC(c3ccccc3)CC2=O)c(C)c1 (centres unmarked) [SN00784704] | 6.2
68 | O=C(NCCc1ccccc1)c1ccc(Nc2nc3ccccc3n3nnnc23)cc1 [SN00784739] | 8.5
69 | Cc1ccc(S(=O)(=O)Nc2cc3c(cc2NCc2ccccc2)n(C)c(=O)n3C)cc1 [SN00784759] | 14.3
70 | COc1ccc(S(=O)(=O)Nc2cc3c(cc2NCc2ccccc2)n(C)c(=O)n3C)cc1OC [SN00784765] | 14.1
71 | O=C(Nc1ccccc1)NC(c1ccccc1)c1nnc(-c2ccccc2Cl)o1 (centres unmarked) [SN00784775] | 0.0
72 | O=C(CN1CCN(Cc2ccccc2)C1=O)NCc1ccc(Cl)cc1 [SN00784814] | 0.0
73 | CC(=O)c1cccc(NS(=O)(=O)c2c(C)n[nH]c2C)c1 [SN00784818] | 5.0
74 | Cc1ccc(NS(=O)(=O)c2c(C)n[nH]c2C)cc1 [SN00784820] | 8.8
75 | Cc1cc(NC(=O)C2CCN(S(=O)(=O)c3c(C)n[nH]c3C)CC2)ccc1Br [SN00784824] | 11.8
76 | CSCCC1COC(c2cccn2C)=N1 (centres unmarked) [SN00784837] | 0.0
77 | COc1ccc(Cn2cccc2C2=NC(C)(C)CO2)cc1 [SN00784853] | 19.2
78 | CSc1cccc(NC(=O)CN2C(=O)C(C)N=C(c3ccccc3)c3ccccc32)c1 (centres unmarked) [SN00784896] | 0.0
79 | CCN1CCN(C(=O)c2ccc(N3CCCC3=O)cc2)CC1 [SN00784919] | 8.8
80 | CCCCNC(=O)c1cccc(N2CCCC2=O)c1 [SN00784930] | 4.7
81 | Cc1nc(N(C)C)ncc1C(=O)O [SN00784957] | 3.0
82 | CC(=O)c1cccc(NC(=O)C2CCCN(S(=O)(=O)c3c(C)noc3C)C2)c1 (centres unmarked) [SN00784980] | 0.0
83 | CCc1cccc(NC(=O)C2CCCN(S(=O)(=O)c3c(C)noc3C)C2)c1 (centres unmarked) [SN00784983] | 0.0
84 | COc1ccc(-n2nc(C(=O)NCc3ccc(C)cc3)c3c4ccccc4n(C)c3c2=O)cc1 [SN00785076] | 5.1
85 | CCCN1C(=O)c2cc(C(=O)Nc3ccc(F)cc3)ccc2C1Nc1ccc(F)cc1 (centres unmarked) [SN00785169] | 13.3
86 | CCCN1C(=O)c2cc(C(=O)Nc3ccccc3OC)ccc2C1Nc1ccccc1OC (centres unmarked) [SN00785171] | 21.9
87 | CC(=O)N1CCc2cc(C(=O)CN3CCN(c4ccc(C(F)(F)F)cc4[N+](=O)[O-])CC3)ccc21 [SN00785201] | 3.8

Same assay, conditions: 48 h, re-assessment

Row | SMILES | % Inhibition n=2 48h [%]
88 | O=C(NCC1(c2ccccc2)CCOCC1)c1ccc(Br)cc1 [SN00783501] | 14.4
89 | Fc1cccc(Nc2c3c(nc4ccccc24)CCC3)c1 [SN00784170] | 44.9
